{"source": "patent US20240391940A1", "about": "“FUSED RING-CONTAINING COMPOUND, APPLICATION THEREOF, AND COMPOSITION CONTAINING SAME” (GenEros Biopharma Ltd., priority 2020, published 2024)", "format_in_all_cases": "in vivo, C57BL/6 Apoe KO mice", "key": {"[1]": {"test_system": "Apoe KO mouse atherosclerosis model", "experiment": "Atherosclerosis model: plaques in the cardiac (left ventricular) outflow tract", "method": "(§1) Method: Apoe KO mice were tested for basal blood lipid levels and divided into a normal control group and a high-fat group. After 8 weeks of housing, the mice from the high-fat group were divided into 4 groups of about 8: a normal diet group (Chow), a high-fat diet model group (HFD), an Atorvastatin positive group (HFD+atorvastatin 5 mpk, QD), and a GEN1-284s group (284-60 mpk, QD). Oral administration was performed for 8 consecutive weeks, and the effect of the compound on the following indicators in Apoe KO mice was observed: 4 blood lipid tests (TC, TG, HDL-C and LDL-C), aortic plaque En-face staining, and pathological oil red staining of the cardiac outflow tract.\n(§2) Mice from the groups except for the normal diet control group (Chow) were fed with high-fat feed every day for […]. From week 9, each group was orally administered solvent or a corresponding test compound, and body weight data were recorded every day for 8 consecutive weeks. After the first 8 weeks' high-fat diet, blood samples were taken and centrifuged to separate serum, and the serum was tested for blood lipid levels (TCHO, TG, LDL-C and HDL-C). The mice were randomly grouped according to the TCHO results and body weight. During the subsequent 8 weeks of administration, blood lipid tests (TCHO, TG, LDL-C and HDL-C) were run once every 4 weeks.\nMouse heart samples were fixed overnight in 4% paraformaldehyde solution and dehydrated in sucrose solution. Then, the samples were embedded with OCT (Sakura, Japan) under a stereo microscope and made into 10 μm frozen sections. The sections were stained with oil red ORO and then subjected to routine pathological examinations. Images of the outflow tract were acquired under an optical microscope at 4× magnification, and high-quality morphological observations were carried out using an eyepiece with 20× magnification. The percentage of intimal lesions in the cardiac outflow tract was calculated. The detection criteria followed the criteria for histological classification of human atherosclerotic disease, which are described in detail below:\nThe area of plaques in the left ventricular outflow tract was measured using a microscope, and the proportion of plaques in the left ventricular outflow tract was calculated; this value reflects the degree of stenosis in the cardiac outflow tract vessel."}, "[2]": {"test_system": "Apoe KO mouse atherosclerosis model", "experiment": "Atherosclerosis model: aortic plaque En-face staining and plaque area", "method": "as §1, §2\nAt the end of the experiment, the mice were euthanized by CO2 inhalation, and their hearts and aortas (from the aortic arch to the iliac artery) were isolated. The isolated artery was dissected longitudinally from the aortic arch to the iliac artery, fixed in 4% paraformaldehyde for 30 min, synchronized with 60% isopropanol for 10 min, then stained in 60% oil red for 30 min, and then washed with 60% isopropanol 3 times for 5 min each time. Finally, the stained aorta was washed with deionized water and photographed. The proportion of red plaque areas was measured using Image Pro Plus 6.0 (Media Cybernetics, MD, US)."}, "[3]": {"test_system": "Apoe KO mouse atherosclerosis model", "experiment": "Atherosclerosis model (Apoe KO mice, high-fat diet): blood lipid tests TCHO, TG, LDL-C, HDL-C", "set-up": "blood lipids (CHO) in Apo E−/− mice / blood lipids (TG) in Apo E−/− mice / blood lipids (HDL-C) in Apo E−/− mice / blood lipids (LDL-C) in Apo E−/− mice: unit not given here", "details": "for blood lipids (CHO) in Apo E−/− mice / blood lipids (HDL-C) in Apo E−/− mice / blood lipids (LDL-C) in Apo E−/− mice / blood lipids (TG) in Apo E−/− mice: HFD + ATV-5 mpk, 5 mg/kg", "method": "as §1, §2\nMice were fasted overnight, and blood (150 μL) was collected via mandibular blood sampling or eye ball removal (for endpoint only) and left at room temperature for 2 h. The blood was centrifuged at 4° C. at 7000 rpm for 10 min, and serum was pipetted, quick-frozen in dry ice and then stored at −80° C. before analysis. The serum was tested for the biochemical indicators TCHO, TG, LDL-C and HDL-C using kits and a microplate reader."}, "[4]": {"details": "Apoe KO mice, high-fat diet, atorvastatin 5 mpk QD oral"}}, "note": "Values joined by “and” are separate entries in the source; they are usually repeats but may differ in a detail not shown here. Identical values can stand only once.", "data": [{"smiles": "CC(C)c1c(C(=O)Nc2ccccc2)c(-c2ccccc2)c(-c2ccc(F)cc2)n1CC[C@@H](O)C[C@@H](O)CC(=O)O", "note": "[ATV]", "values": [{"measurement": "plaques in the cardiac outflow tracts of mice (proportion of plaques in the left ventricular outflow tract)", "setting": "[1]; HFD + ATV-5 mpk, PO QD 8 W, individual mice, 5 mg/kg, in %", "value": "1.923 and 8.46 and 9.071 and 7.844 and 1.618 and 3.771 and 2.279 and 8.38"}, {"measurement": "atherosclerotic plaques in mice (proportion of arterial plaque area)", "setting": "[2]; HFD + ATV-5 mpk, PO QD 8 W, individual mice, 5 mg/kg, in % (unit assumed)", "value": "10.98 and 13.52 and 8.609 and 9.551 and 9.286 and 13.92 and 13.86"}, {"measurement": "blood lipids (CHO) in Apo E−/− mice", "setting": "[3]; Time 1, individual mice", "value": "1.195 and 1.061 and 1.217 and 1.075 and 1.359 and 0.7849 and 0.5037"}, {"measurement": "blood lipids (HDL-C) in Apo E−/− mice", "setting": "[3]; Time 1, individual mice", "value": "0.4304 and 1.163 and 1.735 and 1.563 and 1.618 and 1.29 and 1.027"}, {"measurement": "blood lipids (LDL-C) in Apo E−/− mice", "setting": "[3]; Time 1, individual mice", "value": "1.101 and 1.061 and −0.07821 and 1.123 and 1.296 and 0.676 and 1.006"}, {"measurement": "blood lipids (TG) in Apo E−/− mice", "setting": "[3]; Time 1, individual mice", "value": "1.038 and 0.845 and 1.136 and 1.282 and 0.875 and 1.001 and 0.9307"}, {"measurement": "blood lipids (CHO) in Apo E−/− mice", "setting": "[3]; Time 2, individual mice", "value": "0.8468 and 0.9207 and 0.799 and 1.023 and 0.6043 and 0.8602 and 0.8475 and 0.8932"}, {"measurement": "blood lipids (HDL-C) in Apo E−/− mice", "setting": "[3]; Time 2, individual mice", "value": "1.178 and 0.769 and 0.5861 and 0.7669 and 0.6443 and 0.8023 and 0.8584 and 0.9664"}, {"measurement": "blood lipids (LDL-C) in Apo E−/− mice", "setting": "[3]; Time 2, individual mice", "value": "0.7237 and 0.8132 and 0.6614 and 1.342 and 0.603 and 0.5797 and 1.152 and 1.234"}, {"measurement": "blood lipids (TG) in Apo E−/− mice", "setting": "[3]; Time 2, individual mice", "value": "1.204 and 0.9447 and 1.095 and 1.111 and 0.7477 and 0.9934 and 0.7632 and 0.9336"}, {"measurement": "blood lipids (CHO) in Apo E−/− mice", "setting": "[3]; Time 3, individual mice", "value": "1.237 and 0.9298 and 1.587 and 1.424 and 1.118 and 0.7614 and 1.278 and 1.057"}, {"measurement": "blood lipids (HDL-C) in Apo E−/− mice", "setting": "[3]; Time 3, individual mice", "value": "0.713 (2×) and 0.8416 and 0.6487 and 1.292 and 1.1791 and 0.8576 (2×)"}, {"measurement": "blood lipids (LDL-C) in Apo E−/− mice", "setting": "[3]; Time 3, individual mice", "value": "0.9753 and 0.8023 and 0.8722 and 0.6477 and 0.7655 and 0.4564 and 1.218 and 1.421"}, {"measurement": "blood lipids (TG) in Apo E−/− mice", "setting": "[3]; Time 3, individual mice", "value": "1.341 and 0.9611 and 1.459 and 1.456 and 0.9501 and 1.063 and 1.577 and 0.6584"}, {"measurement": "blood lipids (CHO) in Apo E−/− mice", "setting": "[3]; Time 4, individual mice", "value": "1.183 and 1.199 and 1.344 and 1.673 and 1 and 1.22 and 0.7566 and 1.398"}, {"measurement": "blood lipids (HDL-C) in Apo E−/− mice", "setting": "[3]; Time 4, individual mice", "value": "0.9522 and 1.062 and 0.6434 and 4.724 and 0.6654 and 1.371 and 0.6875 and 0.8419"}, {"measurement": "blood lipids (LDL-C) in Apo E−/− mice", "setting": "[3]; Time 4, individual mice", "value": "1.05 and 1.675 and 0.9086 and 0.8511 and 1.319 and 0.3604 and 0.6019 and 1.123"}, {"measurement": "blood lipids (TG) in Apo E−/− mice", "setting": "[3]; Time 4, individual mice", "value": "1.516 and 1.429 and 2.38 and 2.165 and 1.213 and 1.476 and 0.5106 and 0.9949"}]}, {"smiles": "CC(C)c1c(C(=O)Nc2ccccc2)c(-c2ccccc2)c(-c2ccc(F)cc2)n1CC[C@@H](O)C[C@@H](O)CC(=O)O", "note": "[atorvastatin, reference compound]", "values": [{"measurement": "Left ventricular outflow tract plaques", "setting": "[1]; [4]", "value": "significantly fewer plaques than the HFD group"}, {"measurement": "Proportion of the arterial plaque area", "setting": "[2]; [4]", "value": "significantly reduced"}, {"measurement": "Effect on dyslipidemia", "setting": "[3]; Apoe KO mice, high-fat diet, atorvastatin 5 mpk QD oral, 8 weeks", "value": "dyslipidemia was relieved"}]}]}
